Source: the NIST ThermoML archive (doi:10.1021/je700179q)
± gives the expanded uncertainty stated by the source.

Settings: Crystal; visual observation

c1ccc2c(c1)Cc1ccccc1-2 [fluorene]
Normal melting temperature: 116.00 ± 1 °C
